Literature values as cited in patent US20110293528A1, “ENEMA PREPARATIONS AND THEIR USE” (PHOTOCURE ASA, priority 2008, published 2011).

Key:
[1] = system: pre-malignant conditions in the colon (polyps); details: enemas of 200 mg HAL in 500 ml or 1000 ml phosphate buffered saline (1.6 and 0.8 mmol per litre)
[2] = system: rectal adenoma or rectal cancer; details: 3.2 mmol per litre HAL, instillation time 30-45 minutes, rest time 30 minutes

With `CCCCCCOC(=O)CCC(=O)CN` [5-aminolevulinic acid hexyl ester] as the compound, how does the “more polyps detected by PDD than when using white light endoscopic imaging” value [1] read?
Its value is 28%.

What about the “result of photodynamic detection” value [2] of the same compound?
Its value is “satisfactory results”.
